The NIST ThermoML archive (doi:10.1021/je300873x)
± gives the expanded uncertainty stated by the source.

Experiment: mn = molality of the nth substance listed, in mol/kg
Details: for surface tension liquid-gas: Pendant drop shape; for electrical conductivity: Liquid, Digital conductivity meter

CCCCCCCCCCCC[N+](C)(C)CCO.[Br-] [dodecyl(2-hydroxyethyl)dimethylammonium bromide] + O
Details	electrical conductivity [S/m]	surface tension liquid-gas [mN/m]
298.15 K, m1 = 0.001	–	68.12 ± 0.61
298.15 K, m1 = 0.00201	–	63.05 ± 0.57
298.15 K, m1 = 0.00402	–	54.51 ± 0.5
298.15 K, m1 = 0.00602	–	49.15 ± 0.46
298.15 K, m1 = 0.00803	–	45.74 ± 0.43
298.15 K, m1 = 0.00949	0.0809 ± 0.0001	–
298.15 K, m1 = 0.00996	0.0847 ± 0.0001	–
298.15 K, m1 = 0.01004	–	42.61 ± 0.41
298.15 K, m1 = 0.01049	0.0889 ± 0.0001	–
298.15 K, m1 = 0.01107	0.0935 ± 0.0001	–
298.15 K, m1 = 0.01172	0.0987 ± 0.0001	–
298.15 K, m1 = 0.01205	–	39.74 ± 0.39
298.15 K, m1 = 0.01246	0.1047 ± 0.0001	–
298.15 K, m1 = 0.01286	0.1079 ± 0.0001	–
298.15 K, m1 = 0.01305	–	38.84 ± 0.38
298.15 K, m1 = 0.01329	0.111 ± 0.0001	–
298.15 K, m1 = 0.01375	0.1138 ± 0.0001	–
298.15 K, m1 = 0.01424	0.116 ± 0.0001	–
298.15 K, m1 = 0.01476	0.1177 ± 0.0001	–
298.15 K, m1 = 0.01506	–	38.78 ± 0.38
298.15 K, m1 = 0.01533	0.1196 ± 0.0001	–
298.15 K, m1 = 0.01595	0.121 ± 0.0001	–
298.15 K, m1 = 0.01661	0.1226 ± 0.0001	–
298.15 K, m1 = 0.01707	–	38.7 ± 0.38
298.15 K, m1 = 0.01733	0.1248 ± 0.0001	–
298.15 K, m1 = 0.01812	0.1264 ± 0.0001	–
298.15 K, m1 = 0.01899	0.1281 ± 0.0001	–
298.15 K, m1 = 0.01994	0.1302 ± 0.0001	–
298.15 K, m1 = 0.02009	–	38.51 ± 0.38
298.15 K, m1 = 0.03014	–	38.4 ± 0.38
298.15 K, m1 = 0.05027	–	38.38 ± 0.38
303.15 K, m1 = 0.00945	0.0886 ± 0.0001	–
303.15 K, m1 = 0.00992	0.093 ± 0.0001	–
303.15 K, m1 = 0.01045	0.0974 ± 0.0001	–
303.15 K, m1 = 0.01103	0.1025 ± 0.0001	–
303.15 K, m1 = 0.01168	0.1068 ± 0.0001	–
303.15 K, m1 = 0.01241	0.1148 ± 0.0001	–
303.15 K, m1 = 0.01281	0.1182 ± 0.0001	–
303.15 K, m1 = 0.01324	0.1212 ± 0.0001	–
303.15 K, m1 = 0.01369	0.1246 ± 0.0001	–
303.15 K, m1 = 0.01418	0.128 ± 0.0001	–
303.15 K, m1 = 0.01471	0.1306 ± 0.0001	–
303.15 K, m1 = 0.01527	0.1326 ± 0.0001	–
303.15 K, m1 = 0.01589	0.1346 ± 0.0001	–
303.15 K, m1 = 0.01655	0.1364 ± 0.0001	–
303.15 K, m1 = 0.01727	0.1386 ± 0.0001	–
303.15 K, m1 = 0.01805	0.1407 ± 0.0001	–
303.15 K, m1 = 0.01892	0.1431 ± 0.0001	–
303.15 K, m1 = 0.01986	0.1451 ± 0.0001	–
308.15 K, m1 = 0.00993	0.1022 ± 0.0001	–
308.15 K, m1 = 0.01046	0.1072 ± 0.0001	–
308.15 K, m1 = 0.01104	0.112 ± 0.0001	–
308.15 K, m1 = 0.01169	0.1179 ± 0.0001	–
308.15 K, m1 = 0.01242	0.1251 ± 0.0001	–
308.15 K, m1 = 0.01282	0.1293 ± 0.0001	–
308.15 K, m1 = 0.01325	0.1334 ± 0.0001	–
308.15 K, m1 = 0.0137	0.1371 ± 0.0001	–
308.15 K, m1 = 0.01419	0.1408 ± 0.0001	–
308.15 K, m1 = 0.01472	0.1443 ± 0.0001	–
308.15 K, m1 = 0.01529	0.1472 ± 0.0001	–
308.15 K, m1 = 0.0159	0.1496 ± 0.0001	–
308.15 K, m1 = 0.01656	0.152 ± 0.0001	–
308.15 K, m1 = 0.01728	0.1541 ± 0.0001	–
308.15 K, m1 = 0.01807	0.1567 ± 0.0001	–
308.15 K, m1 = 0.01893	0.1595 ± 0.0001	–
308.15 K, m1 = 0.01987	0.1621 ± 0.0001	–
313.15 K, m1 = 0.01044	0.1171 ± 0.0001	–
313.15 K, m1 = 0.01102	0.1229 ± 0.0001	–
313.15 K, m1 = 0.01167	0.1298 ± 0.0001	–
313.15 K, m1 = 0.0124	0.1376 ± 0.0001	–
313.15 K, m1 = 0.0128	0.1416 ± 0.0001	–
313.15 K, m1 = 0.01322	0.1461 ± 0.0001	–
313.15 K, m1 = 0.01368	0.1507 ± 0.0001	–
313.15 K, m1 = 0.01417	0.1556 ± 0.0001	–
313.15 K, m1 = 0.01469	0.1595 ± 0.0001	–
313.15 K, m1 = 0.01526	0.1638 ± 0.0001	–
313.15 K, m1 = 0.01587	0.1664 ± 0.0001	–
313.15 K, m1 = 0.01653	0.1694 ± 0.0001	–
313.15 K, m1 = 0.01725	0.1723 ± 0.0001	–
313.15 K, m1 = 0.01803	0.1749 ± 0.0001	–
313.15 K, m1 = 0.01889	0.1783 ± 0.0001	–
313.15 K, m1 = 0.01984	0.1813 ± 0.0001	–
318.15 K, m1 = 0.01042	0.127 ± 0.0001	–
318.15 K, m1 = 0.01099	0.134 ± 0.0001	–
318.15 K, m1 = 0.01164	0.1411 ± 0.0001	–
318.15 K, m1 = 0.01237	0.1496 ± 0.0001	–
318.15 K, m1 = 0.01277	0.1543 ± 0.0001	–
318.15 K, m1 = 0.01319	0.1592 ± 0.0001	–
318.15 K, m1 = 0.01365	0.1643 ± 0.0001	–
318.15 K, m1 = 0.01414	0.1694 ± 0.0001	–
318.15 K, m1 = 0.01466	0.174 ± 0.0001	–
318.15 K, m1 = 0.01523	0.1791 ± 0.0001	–
318.15 K, m1 = 0.01583	0.1838 ± 0.0001	–
318.15 K, m1 = 0.01649	0.1877 ± 0.0001	–
318.15 K, m1 = 0.01721	0.1908 ± 0.0001	–
318.15 K, m1 = 0.018	0.1933 ± 0.0001	–
318.15 K, m1 = 0.01885	0.1973 ± 0.0001	–
318.15 K, m1 = 0.0198	0.2012 ± 0.0001	–
323.15 K, m1 = 0.01039	0.1354 ± 0.0001	–
323.15 K, m1 = 0.01097	0.1447 ± 0.0001	–
323.15 K, m1 = 0.01162	0.1524 ± 0.0001	–
323.15 K, m1 = 0.01234	0.1613 ± 0.0001	–
323.15 K, m1 = 0.01274	0.1661 ± 0.0001	–
323.15 K, m1 = 0.01317	0.1716 ± 0.0001	–
323.15 K, m1 = 0.01362	0.1773 ± 0.0001	–
323.15 K, m1 = 0.01411	0.1832 ± 0.0001	–
323.15 K, m1 = 0.01463	0.1896 ± 0.0001	–
323.15 K, m1 = 0.01519	0.1954 ± 0.0001	–
323.15 K, m1 = 0.0158	0.2012 ± 0.0001	–
323.15 K, m1 = 0.01646	0.2061 ± 0.0001	–
323.15 K, m1 = 0.01717	0.21 ± 0.0001	–
323.15 K, m1 = 0.01795	0.2148 ± 0.0001	–
323.15 K, m1 = 0.01881	0.2187 ± 0.0001	–
323.15 K, m1 = 0.01975	0.2216 ± 0.0001	–

O [water] + CCCCCCCCCCCCCCCC[N+](C)(C)CCO.[Br-]
Details	surface tension liquid-gas [mN/m]
298.15 K, m2 = 0	72.17 ± 0.64
